Reference: US4873225A, “1-n-(4-amino-3-fluoro-2-hydroxybutyryl)-kanamycins” (Zaidan Hojin Biseibutsu Kagaku Kenkyu Kai, priority 1987, dated 1989)
Converted amounts (≈) assume the structure as drawn. Read-outs that look alike come from different tables or passages of the source.

What was measured:
[1] = system: gram-positive and gram-negative bacteria, including resistant strains; conditions: reported in earlier applications, cited from earlier work
[2] = system: Staphylococcus aureus Ap 01; conditions: reported in earlier applications; cited from earlier work
[3] = system: Staphylococcus epidermidis 109; conditions: reported in earlier applications; cited from earlier work
[4] = system: mice; assay: Acute toxicity against mice; format: in vivo; conditions: orally administered, 150 mg/kg
[5] = system: Escherichia coli K-12 R5; assay: MIC, standard serial dilution method; format: cell-based; conditions: K12R5, pH 7
Description: (§1) Antibacterial activities of each of the abovementioned compounds of the general formula (I) according to this invention were determined by measuring their minimum growth inhibitory concentrations (MIC, mcg/ml) against various bacteria in accordance with a standard serial dilution method. The pH condition of the incubation medium where the MIC data were measured was set at pH 7, unless otherwise specifically indicated. For the sake of comparison, the antibacterial spectra of 1-N-{(S)-4-amino-2-hydroxybutyryl}kanamycin A (i.e., amikacin) and 1-N-{(S)-4-amino-2-hydroxybutyryl}-3,4-dideoxykanamycin B (i.e., habekacin) were also measured in the same manner.
Infectious diseases by Escherichia coli K-12 R5 tend to increase in recent days. The compounds of this invention are therefore important for the therapeutic treatment of bacterial infections.

[6] = system: Pseudomonas aeruginosa TI 13; assay: MIC, standard serial dilution method; format: cell-based; conditions: for MIC: Pseudomonas aeruginosa, read-out: MIC
Description: as §1
(§2) (a) The antibacterial activities of the compounds of this invention are not decreased practically even under pH conditions of pH […] as compared to their antibacterial activities under neutral conditions of pH 7.

[7] = system: Escherichia coli JR66/W677; assay: MIC, standard serial dilution method; format: cell-based; conditions: for MIC: Escherichia coli
Description: as §1, §2

[8] = system: Escherichia coli K-12 LA 290 R55; assay: MIC, standard serial dilution method; format: cell-based; conditions: K12LA290R55, pH 7
Description: as §1

[9] = system: Proteus rettgeri GN 311; assay: MIC, standard serial dilution method; format: cell-based; conditions: Providencia rettgeri, GN311, pH 7; read-out: MIC
Description: as §1

[10] = system: Staphylococcus aureus 209P; assay: MIC, standard serial dilution method; format: cell-based; conditions: pH 7, read-out: MIC
Description: as §1

[11] = system: Serratia marcescens; assay: MIC, standard serial dilution method; format: cell-based
Description: as §1

[12] = system: Escherichia coli JR 225; assay: MIC, standard serial dilution method; format: cell-based; conditions: JR225, pH 7
Description: as §1

[13] = system: Providencia sp. Pv 16; assay: MIC, standard serial dilution method; format: cell-based
Description: as §1

[14] = system: Escherichia coli K-12 ML 1629; assay: MIC, standard serial dilution method; format: cell-based; conditions: K12ML1629, pH 7, read-out: MIC
Description: as §1

[15] = system: Escherichia coli K-12; assay: MIC, standard serial dilution method; format: cell-based; conditions: K12, pH 7
Description: as §1

[16] = system: Klebsiella pneumoniae 22 #3038; assay: MIC, standard serial dilution method; format: cell-based
Description: as §1

[17] = system: Staphylococcus aureus Ap01; assay: MIC, standard serial dilution method; format: cell-based; conditions: AP01, pH 7, read-out: MIC
Description: as §1

[18] = system: Bacillus subtilis PCI219; assay: MIC, standard serial dilution method; format: cell-based; conditions: PCI219, pH 7, read-out: MIC
Description: as §1

[19] = system: Pseudomonas aeruginosa A3; assay: MIC, standard serial dilution method; format: cell-based; conditions: A3, pH 7, read-out: MIC
Description: as §1

[20] = system: Corynebacterium bovis 1810; assay: MIC, standard serial dilution method; format: cell-based; conditions: Corynebacterium bovis, 1810, pH 7; read-out: MIC
Description: as §1

[21] = system: Pseudomonas aeruginosa GN 315; assay: MIC, standard serial dilution method; format: cell-based; conditions: GN315, pH 7
Description: as §1

[22] = system: Mycobacterium 607; assay: MIC, standard serial dilution method; format: cell-based; conditions: Mycobacterium, 607, pH 7; read-out: MIC
Description: as §1

[23] = system: gram-positive bacteria, gram-negative bacteria and various kanamycin-resistant strains of bacteria; assay: Antibacterial activity in vitro, in words; format: cell-based; conditions: tested in vitro
Description: The present inventors have carried out an extensive investigation in an attempt to produce such novel kanamycin derivatives which are capable of fulfilling such demands. […] The present invention has been completed on the basis of these above findings.
as §1

[24] = JR66/W677, measured at pH 6, read-out: MIC

SMILES | MIC [5] [µg/mL] | MIC ([6]; TI13, pH 7) [µg/mL] | MIC ([6]; TI13, measured at pH 6) [µg/mL] | MIC ([7]; JR66/W677, pH 7, read-out: MIC) [µg/mL] | MIC [8] [µg/mL] | MIC [9] [µg/mL] | MIC [10] [µg/mL] | MIC [12] [µg/mL] | MIC [14] [µg/mL] | MIC [15] [µg/mL] | MIC [17] [µg/mL] | MIC [18] [µg/mL] | MIC [19] [µg/mL] | MIC [20] [µg/mL] | MIC [21] [µg/mL] | MIC [22] [µg/mL] | further results
NC[C@H]1O[C@H](O[C@H]2[C@H](O)[C@@H](O[C@H]3O[C@H](CO)[C@@H](O)[C@H](N)[C@H]3O)[C@H](N)C[C@@H]2N)[C@H](F)C[C@@H]1O [2',3'-dideoxy-2'-fluorokanamycin A] | – | – | – | – | – | – | – | – | – | – | – | – | – | – | – | – | antibacterial activities (in words) [1]: antibacterial activities against gram-positive and gram-negative bacteria, including certain resistant strains of bacteria
NC[C@H]1O[C@H](O[C@H]2[C@H](O)[C@@H](O[C@H]3O[C@H](CO)[C@@H](O)[C@H](N)[C@H]3O)[C@H](N)C[C@@H]2N)[C@H](O)[C@@H](F)[C@@H]1O [3'-deoxy-3'-fluorokanamycin A] | – | – | – | – | – | – | – | – | – | – | – | – | – | – | – | – | antibacterial activities (in words) [1]: effective also against kanamycin-resistant bacteria
NC[C@@H]1C[C@H](F)[C@@H](N)[C@@H](O[C@H]2[C@H](O)[C@@H](O[C@H]3O[C@H](CO)[C@@H](O)[C@H](N)[C@H]3O)[C@H](N)C[C@@H]2N)O1 [3',4'-dideoxy-3'-fluorokanamycin B] | – | – | – | – | – | – | – | – | – | – | – | – | – | – | – | – | effective against resistant strain [2]: effective against such certain resistant strains of bacteria; effective against resistant strain [3]: effective against such certain resistant strains of bacteria
NC[C@@H](F)[C@H](O)C(=O)N[C@@H]1C[C@H](N)[C@@H](O[C@H]2O[C@H](CN)[C@@H](O)[C@H](O)[C@H]2O)[C@H](O)[C@H]1O[C@H]1O[C@H](CO)[C@@H](O)[C@H](N)[C@H]1O [Invention Compound Nos. 1] | – | – | – | – | – | – | – | – | – | – | – | – | – | – | – | – | survival of mice [4]: all mice surrived
NC[C@@H](F)[C@H](O)C(=O)N[C@@H]1C[C@H](N)[C@@H](O[C@H]2O[C@H](CN)[C@@H](O)[C@H](O)[C@H]2O)[C@H](F)[C@H]1O[C@H]1O[C@H](CO)[C@@H](O)[C@H](N)[C@H]1O [Invention Compound No. 4, 1-N-{(2R,3R)-4-Amino-3-fluoro-2-hydroxybutyryl}-5-deoxy-5-fluorokanamycin A] | 6.25 (≈ 10.3 µM) | 3.12 (≈ 5.15 µM) | 3.12 (≈ 5.15 µM) | 1.56 (≈ 2.58 µM) | 0.78 (≈ 1.29 µM) | 1.56 (≈ 2.58 µM) | 1.56 (≈ 2.58 µM) | 0.39 (≈ 0.644 µM) | 0.39 (≈ 0.644 µM) | 0.78 (≈ 1.29 µM) | 6.25 (≈ 10.3 µM) | 3.12 (≈ 5.15 µM) | 1.56 (≈ 2.58 µM) | 0.39 (≈ 0.644 µM) | 25 (≈ 41.3 µM) | 3.12 (≈ 5.15 µM) | MIC [7, 24]: 3.12 µg/mL (≈ 5.15 µM); MIC ([11]; pH 7, read-out: MIC): 6.25 µg/mL (≈ 10.3 µM); MIC ([13]; SP.PV16, pH 7, read-out: MIC): 1.56 µg/mL (≈ 2.58 µM); MIC ([16]; pH 7, read-out: MIC): 3.12 µg/mL (≈ 5.15 µM)
NCC[C@H](O)C(=O)N[C@@H]1C[C@H](N)[C@@H](O[C@H]2O[C@H](CN)CC[C@H]2N)[C@H](O)[C@H]1O[C@H]1O[C@H](CO)[C@@H](O)[C@H](N)[C@H]1O [Habekacin, 1-N-{(S)-4-amino-2-hydroxybutyryl}-3,4-dideoxykanamycin B, reference compound] | 25 (≈ 45.2 µM) | 0.78 (≈ 1.41 µM) | 25 (≈ 45.2 µM) | 0.78 (≈ 1.41 µM) | 0.78 (≈ 1.41 µM) | 0.78 (≈ 1.41 µM) | < 0.2 | 0.78 (≈ 1.41 µM) | 0.78 (≈ 1.41 µM) | 0.39 (≈ 0.706 µM) | 0.39 (≈ 0.706 µM) | < 0.2 | < 0.2 | 0.39 (≈ 0.706 µM) | 3.12 (≈ 5.65 µM) | 0.39 (≈ 0.706 µM) | antibacterial activity (MIC) at pH 6 as compared to pH 7 ([6]; pH 6 vs pH 7): reduced considerably at pH 6; MIC ([7]; JR66/W677, pH 6): 6.25 µg/mL (≈ 11.3 µM); antibacterial activity (MIC) at pH 6 as compared to pH 7 ([7]; pH 6 vs pH 7): reduced considerably at pH 6; MIC ([11]; pH 7): 12.5 µg/mL (≈ 22.6 µM); MIC ([13]; SP.PV16, pH 7): 1.56 µg/mL (≈ 2.82 µM); MIC ([16]; pH 7): 1.56 µg/mL (≈ 2.82 µM)
NC[C@H]1O[C@H](O[C@H]2[C@H](F)[C@@H](O[C@H]3O[C@H](CO)[C@@H](O)[C@H](N)[C@H]3O)[C@H](N)C[C@@H]2N)[C@H](N)[C@@H](O)[C@@H]1O [5-deoxy-5-fluorokanamycin B] | – | – | – | – | – | – | – | – | – | – | – | – | – | – | – | – | antibacterial activities relative to kanamycin B ([1]; over kanamycin B): enhanced or improved advantageously over kanamycin B
NC[C@@H](F)[C@H](O)C(=O)N[C@@H]1C[C@H](N)[C@@H](O[C@H]2O[C@H](CN)[C@@H](O)C[C@H]2N)[C@H](O)[C@H]1O[C@H]1O[C@H](CO)[C@@H](O)[C@H](N)[C@H]1O [Invention Compound No. 6, 1-N-{(2R,3R)-4-Amino-3-fluoro-2-hydroxybutyryl}-3'-deoxykanamycin B] | 3.12 (≈ 5.32 µM) | 0.78 (≈ 1.33 µM) | 3.12 (≈ 5.32 µM) | 0.39 (≈ 0.665 µM) | 0.39 (≈ 0.665 µM) | 0.39 (≈ 0.665 µM) | 0.39 (≈ 0.665 µM) | < 0.2 | 0.78 (≈ 1.33 µM) | < 0.2 | 0.78 (≈ 1.33 µM) | 0.2 (≈ 0.341 µM) | < 0.2 | 0.39 (≈ 0.665 µM) | 3.12 (≈ 5.32 µM) | 0.78 (≈ 1.33 µM) | MIC [7, 24]: 1.56 µg/mL (≈ 2.66 µM); MIC ([11]; pH 7, read-out: MIC): 3.12 µg/mL (≈ 5.32 µM); MIC ([13]; SP.PV16, pH 7, read-out: MIC): 0.78 µg/mL (≈ 1.33 µM); MIC ([16]; pH 7, read-out: MIC): 1.56 µg/mL (≈ 2.66 µM)
NC[C@H](F)[C@H](O)C(=O)N[C@@H]1C[C@H](N)[C@@H](O[C@H]2O[C@H](CN)[C@@H](O)[C@H](O)[C@H]2N)[C@H](O)[C@H]1O[C@H]1O[C@H](CO)[C@@H](O)[C@H](N)[C@H]1O [1-N-{(2R,3S)-4-amino-3-fluoro-2-hydroxybutyryl}kanamycin B] | – | – | – | – | – | – | – | – | – | – | – | – | – | – | – | – | enhancement in antibacterial activities [23]: did not show any enhancement in antibacterial activities
NC[C@H]1O[C@H](O[C@H]2[C@H](O)[C@@H](O[C@H]3O[C@H](CO)[C@@H](O)[C@H](N)[C@H]3O)[C@H](N)C[C@@H]2N)[C@H](N)[C@@H](F)[C@@H]1O [3'-deoxy-3'-fluorokanamycin B] | – | – | – | – | – | – | – | – | – | – | – | – | – | – | – | – | antibacterial activities (in words) [1]: antibacterial activities against various gram-positive and gram-negative bacteria, including resistant strains
NC[C@@H](F)[C@H](O)C(=O)N[C@@H]1C[C@H](N)[C@@H](O[C@@H]2CC[C@H](O)[C@@H](CN)O2)[C@H](O)[C@H]1O[C@H]1O[C@H](CO)[C@@H](O)[C@H](N)[C@H]1O [Invention Compound No. 2, 1-N-{(2R,3R)-4-Amino-3-fluoro-2-hydroxybutyryl}-2',3'-dideoxykanamycin A] | 6.25 (≈ 10.9 µM) | 3.12 (≈ 5.46 µM) | 3.12 (≈ 5.46 µM) | 1.56 (≈ 2.73 µM) | 0.78 (≈ 1.36 µM) | 0.78 (≈ 1.36 µM) | 0.2 (≈ 0.35 µM) | 0.39 (≈ 0.682 µM) | 0.78 (≈ 1.36 µM) | 0.39 (≈ 0.682 µM) | 1.56 (≈ 2.73 µM) | 0.78 (≈ 1.36 µM) | 0.78 (≈ 1.36 µM) | 0.78 (≈ 1.36 µM) | 12.5 (≈ 21.9 µM) | 1.56 (≈ 2.73 µM) | MIC [7, 24]: 6.25 µg/mL (≈ 10.9 µM); survival of mice [4]: all mice surrived; MIC ([11]; pH 7, read-out: MIC): 3.12 µg/mL (≈ 5.46 µM); MIC ([13]; SP.PV16, pH 7, read-out: MIC): 1.56 µg/mL (≈ 2.73 µM); MIC ([16]; pH 7, read-out: MIC): 3.12 µg/mL (≈ 5.46 µM)
